This is an account of results in patent US20230063462A1, “SULFONIMIDAMIDE COMPOUNDS AND COMPOSITIONS FOR TREATING CONDITIONS ASSOCIATED WITH NLRP ACTIVITY” (NOVARTIS AG, priority 2019, published 2023).

Where two headings read alike, the source gives them in different places.

In general, IC50 refers to the concentration at which inhibition is half-maximal.

The test deals with THP-1 cells. The test is described as follows: hTHP-1 assay: gramicidin-stimulated IL-1β detection in PMA-treated THP-1 cells. In kind it is cell-based, human. The method, then:
The following protocol is suitable for testing the activity of the compounds disclosed herein.
1. Experimental procedure • 1.1 Cell Culture • 1) Culture THP-1 cells in the complete RPMI-1640 medium with 10% FBS at 37° C., 5% CO2. • 2) Passage the cells every 3 days by inoculating 3×10^5 cells per ml. • 1.2 Compound Preparation • Prepare the 3-fold serial dilution of the compounds with DMSO in a 384-well LDV Microplate using TECAN EVO system to generate the compound source plate with 10 concentrations. […] HC: 100 μM CRID3 (MCC950)+5 μM gramicidin LC: 5 μM Gramicidin. • 1.5 IL-1β Detection • 1) Homogenize the 5× diluent #5 with a vortex and add 1 volume of stock solution in 4 volumes of distilled water. • 2) Thaw 20× stock solution of anti-IL1β-Cryptate-antibody and anti-IL1β XL-antibody. Dilute these two antibodies to 1× with detection buffer #3. • 3) Pre-mix the two ready-to-use antibody solutions just prior to use. • 4) Dispense 4 ul of pre-mixed Anti-IL1β antibodies working solution into all wells. • 5) Seal the plate and incubate overnight at 4° C. • 6) Read the cell plate using EnVison and plot Readout vs. the test compound concentration to calculate the IC50.
2. Data Analysis: • 1. IC50 of compounds can be calculated using the following formulas • Formula for IC50
% inhibition=100−100×[HCave-Readout/(HCave−LCave)] • 2. Fit the normalized data in a dose-response manner using XLfit, and calculate the compound concentration.

Where [1] appears, read: Table B1, 2% fetal bovine serum, class symbol, read-out: hTHP-1 IC50.
Where [2] appears, read: Table B1, 2% fetal bovine serum, numeric value, read-out: hTHP-1 IC50.
[3] abbreviates: Homo sapiens, THP-1, Table B1, 2% fetal bovine serum, class symbol, read-out: hTHP-1 IC50.

In the case of `CN(C)Cc1ccc(S(=O)(=NC(=O)Nc2c3c(cc4c2CCC4)CCC3)NC#N)c(F)c1` (single isomer, unassigned) [Example 14, (S) or (R)-N-cyano-4-((dimethylamino)methyl)-2-fluoro-N′-((1,2,3,5,6,7-hexahydro-s-indacen-4-yl)carbamoyl)benzenesulfonimidamide], the 50% inhibitory concentration (IC50) runs as follows: under setting [1], 40 to 200 nM; under setting [2], 973 nM.

For `CN(C)Cc1ccc(S(=O)(=NC(=O)Nc2c3c(cc4c2CCC4)CCC3)NC#N)c(F)c1` (single isomer, unassigned) [Example 15, (R) or (S)-N-cyano-4-((dimethylamino)methyl)-2-fluoro-N′-((1,2,3,5,6,7-hexahydro-s-indacen-4-yl)carbamoyl)benzenesulfonimidamide], the IC50 reads like this: under setting [1], 200 to 1000 nM; under setting [2], 209 nM.

Regarding `CC(C)(O)c1ncc(S(=O)(=NC(=O)Nc2c3c(cc4c2CCC4)CCC3)NC#N)s1` (single isomer, unassigned) [Example 27, (S) or (R)-N-cyano-N′-((1,2,3,5,6,7-hexahydro-s-indacen-4-yl)carbamoyl)-2-(2-hydroxypropan-2-yl)thiazole-5-sulfonimidamide], the half-maximal inhibitory concentration (IC50) under setting [1] lay in the range of 40 to 200 nM and the IC50 under setting [2] turned out to be 92.8 nM.

As for `CC(C)(O)c1csc(S(=O)(=NC(=O)Nc2c3c(cc4c2CC4)CCC3)NC#N)c1` (single isomer, unassigned) [Example 6, (R) or (S)-N-cyano-4-(2-hydroxypropan-2-yl)-N′-((2,4,5,6-tetrahydro-1H-cyclobuta[f]inden-3-yl)carbamoyl)thiophene-2-sulfonimidamide], the 50% inhibitory concentration (IC50) under setting [1] was 40 to 200 nM and the IC50 under setting [2] worked out at 71.7 nM.

As to `CC(C)(O)c1ncc(S(=O)(=NC(=O)Nc2c3c(cc4c2CCC4)CCC3)NC#N)s1` (stereo not drawn) [Example 3, N-cyano-N′-((1,2,3,5,6,7-hexahydro-s-indacen-4-yl)carbamoyl)-2-(2-hydroxypropan-2-yl)thiazole-5-sulfonimidamide], the IC50 was 40 to 200 nM under setting [3] and 34 nM (Homo sapiens, THP-1, Table B1, 2% fetal bovine serum, numeric value, read-out: hTHP-1 IC50).

For the compound `CC(C)c1cc(C#N)c(F)c(C(C)C)c1NC(=O)N=S(=O)(NC#N)c1cnc(C(C)(C)O)s1` (single isomer, unassigned) [Example 21, (R) or (S)-N-cyano-N′-((4-cyano-3-fluoro-2,6-diisopropylphenyl)carbamoyl)-2-(2-hydroxypropan-2-yl)thiazole-5-sulfonimidamide], the 50% inhibitory concentration (IC50) is 40 to 200 nM under setting [1] and 50.8 nM under setting [2].

On to `CC1CCc2c1nc1c(c2NC(=O)N=S(=O)(NC#N)c2cc(C(C)(C)O)cs2)CCC1` (single isomer, unassigned) [Example 18, (S,S) or (S,R)-N-cyano-4-(2-hydroxypropan-2-yl)-N′-(((S)-3-methyl-1,2,3,5,6,7-hexahydrodicyclopenta[b,e]pyridin-8-yl)carbamoyl)thiophene-2-sulfonimidamide], for which the IC50 by setting is: under setting [1], 40 to 200 nM; under setting [2], 80.3 nM.

Consider `N#CNS(=O)(=NC(=O)Nc1c2c(cc3c1CCC3)CCC2)c1ccccc1` (single isomer, unassigned) [Example 33, (S) or (R)-N-cyano-N′-((1,2,3,5,6,7-hexahydro-s-indacen-4-yl)carbamoyl)benzenesulfonimidamide], for which the IC50 reads like this: under setting [1], 1000 to 5000 nM; under setting [2], 1530 nM.

As for `CC1CCc2c1nc1c(c2NC(=O)N=S(=O)(NC#N)c2cc(C(C)(C)O)cs2)CCC1` (single isomer, unassigned) [Example 19, (S,R) or (S,S)-N-cyano-4-(2-hydroxypropan-2-yl)-N′-(((R)-3-methyl-1,2,3,5,6,7-hexahydrodicyclopenta[b,e]pyridin-8-yl)carbamoyl)thiophene-2-sulfonimidamide], the half-inhibitory concentration (IC50) reads like this: under setting [1], 200 to 1000 nM; under setting [2], 705 nM.

Turning to `CC(C)(O)c1ncc(S(=O)(=NC(=O)Nc2c3c(cc4c2CC4)CCC3)NC#N)s1` (single isomer, unassigned) [Example 26, (R) or (S)-N-cyano-2-(2-hydroxypropan-2-yl)-N′-((2,4,5,6-tetrahydro-1H-cyclobuta[f]inden-3-yl)carbamoyl)thiazole-5-sulfonimidamide], the IC50 is 8 to 40 nM under setting [1] and 13.5 nM under setting [2].

`CC(C)(O)c1ccc(CS(=O)(=NC(=O)Nc2c3c(cc4c2CCC4)CCC3)NC#N)cc1` (single isomer, unassigned) [Example 9, (R) or (S)-N-cyano-N′-((1,2,3,5,6,7-hexahydro-s-indacen-4-yl)carbamoyl)-1-(4-(2-hydroxypropan-2-yl)phenyl)methanesulfonimidamide]: the IC50 is, setting by setting: under setting [1], 40 to 200 nM; under setting [2], 104 nM.

For the compound `CC(C)(O)c1cccc(S(=O)(=NC(=O)Nc2c3c(cc4c2CCC4)CCC3)NC#N)c1` (single isomer, unassigned) [Example 32, (R) or (S)-N-cyano-N′-((1,2,3,5,6,7-hexahydro-s-indacen-4-yl)carbamoyl)-3-(2-hydroxypropan-2-yl)benzenesulfonimidamide], the half-maximal inhibitory concentration (IC50) is 40 to 200 nM under setting [1] and 79.5 nM under setting [2].

Consider `CC(C)(O)c1ncc(S(=O)(=NC(=O)Nc2c3c(cc4c2CCC4)CCC3)NC#N)s1` (single isomer, unassigned) [Example 28, (R) or (S)-N-cyano-N′-((1,2,3,5,6,7-hexahydro-s-indacen-4-yl)carbamoyl)-2-(2-hydroxypropan-2-yl)thiazole-5-sulfonimidamide], for which the IC50 under setting [1] fell in the range of 8 to 40 nM and the concentration for half-maximal inhibition (IC50) under setting [2] is 30.8 nM.

For the compound `CC(C)(O)c1ncc(S(=O)(=NC(=O)Nc2c3c(nc4c2CCC4(C)C)CCC3)NC#N)s1` (single isomer, unassigned) [Example 5, (R) or (S)-N-cyano-N′-((3,3-dimethyl-1,2,3,5,6,7-hexahydrodicyclopenta[b,e]pyridin-8-yl)carbamoyl)-2-(2-hydroxypropan-2-yl)thiazole-5-sulfonimidamide], the IC50 by setting is: under setting [1], 200 to 1000 nM; under setting [2], 236 nM.

Consider `CC(C)(O)c1ccc(CS(=O)(=NC(=O)Nc2c3c(cc4c2CCC4)CCC3)NC#N)cc1` (single isomer, unassigned) [Example 8, (S) or (R)-N-cyano-N′-((1,2,3,5,6,7-hexahydro-s-indacen-4-yl)carbamoyl)-1-(4-(2-hydroxypropan-2-yl)phenyl)methanesulfonimidamide], for which the IC50 is 40 to 200 nM under setting [3] and 42.2 nM under setting [2].

As for `CC(C)c1cc(C#N)c(F)c(C(C)C)c1NC(=O)N=S(=O)(NC#N)c1cnc(C(C)(C)O)s1` (single isomer, unassigned) [Example 20, (S) or (R)-N-cyano-N′-((4-cyano-3-fluoro-2,6-diisopropylphenyl)carbamoyl)-2-(2-hydroxypropan-2-yl)thiazole-5-sulfonimidamide], the IC50 is 1000 to 5000 nM under setting [1] and 2750 nM under setting [2].

Turning to `Cc1oc(S(=O)(=NC(=O)Nc2c(C(C)C)cc(F)cc2C(C)C)NC#N)cc1C(C)(C)O` (single isomer, unassigned) [Example 11, (R) or (S)-N-cyano-N′-((4-fluoro-2,6-diisopropylphenyl)carbamoyl)-4-(2-hydroxypropan-2-yl)-5-methylfuran-2-sulfonimidamide], the IC50 under setting [1] is 40 to 200 nM and the half-inhibitory concentration (IC50) under setting [2] stood at 90.6 nM.

Turning to `CC(C)(O)c1ncc(S(=O)(=NC(=O)Nc2c3c(cc4c2CC4)CCC3)NC#N)s1` (single isomer, unassigned) [Example 25, (S) or (R)-N-cyano-2-(2-hydroxypropan-2-yl)-N′-((2,4,5,6-tetrahydro-1H-cyclobuta[f]inden-3-yl)carbamoyl)thiazole-5-sulfonimidamide], the concentration for half-maximal inhibition (IC50) runs as follows: under setting [3], 8 to 40 nM; under setting [2], 27.5 nM.

For `CC(C)(O)c1csc(S(=O)(=NC(=O)Nc2c3c(cc4c2CCC4)CCC3)NC#N)c1` (single isomer, unassigned) [Example 1, (S) or (R)-N-cyano-N′-(1,2,3,5,6,7-hexahydro-s-indacen-4-ylcarbamoyl)-4-(2-hydroxypropan-2-yl)thiophene-2-sulfonimidamide], the IC50 is 40 to 200 nM under setting [1] and 53.5 nM under setting [2].

Regarding `NS(=O)(=NC(=O)Nc1c2c(nc(C(F)(F)F)c1C1CC1)CCC2)c1ccn(C2CC2)n1` (single isomer, unassigned) [Example 898, (R) or (S)-1-cyclopropyl-N′-((3-cyclopropyl-2-(trifluoromethyl)-6,7-dihydro-5H-cyclopenta [b]pyridin-4-yl)carbamoyl)-1H-pyrazole-3-sulfonimidamide], the IC50 (Homo sapiens, THP-1, Table B2, 10% FBS, class symbol, read-out: hTHP-1 IC50 in 10% FBS) was in the range of 40 to 200 nM and the IC50 (Homo sapiens, THP-1, Table B2, 10% FBS, numeric value, read-out: hTHP-1 IC50 in 10% FBS) is 114 nM.

Consider `CC(C)(O)c1ncc(S(=O)(=NC(=O)Nc2c3c(nc4c2CCC4(C)C)CCC3)NC#N)s1` (single isomer, unassigned) [Example 4, (S) or (R)-N-cyano-N′-((3,3-dimethyl-1,2,3,5,6,7-hexahydrodicyclopenta[b,e]pyridin-8-yl)carbamoyl)-2-(2-hydroxypropan-2-yl)thiazole-5-sulfonimidamide], for which the IC50 by setting is: under setting [1], 40 to 200 nM; under setting [2], 59.7 nM.
